Results taken from article PMC9144807, “Fluorine-18 Labeled Urea-Based Ligands Targeting Prostate-Specific Membrane Antigen (PSMA) with Increased Tumor and Decreased Renal Uptake” (Pharmaceuticals, 2022).
“And” between values parts separate entries of the source, which are not always exact repeats. Equal entries are not always repeated. Where two headings read alike, the source gives them in different places.

What was measured:
PSMA [1] = biological target: T1, PSMA (Homo sapiens, UniProt Q04609); test: In vitro competition binding assay with [18F]DCFPyL as radioligand, PC3(+) tumor membrane preparations
T1 construct: expressed in transfected cells; host or cells: PC3(+) (PC3 human prostate cancer cells transfected with human PSMA), grown as xenograft tumors in athymic mice; tumor membrane preparations
T1 sequence (Q04609 whole entry): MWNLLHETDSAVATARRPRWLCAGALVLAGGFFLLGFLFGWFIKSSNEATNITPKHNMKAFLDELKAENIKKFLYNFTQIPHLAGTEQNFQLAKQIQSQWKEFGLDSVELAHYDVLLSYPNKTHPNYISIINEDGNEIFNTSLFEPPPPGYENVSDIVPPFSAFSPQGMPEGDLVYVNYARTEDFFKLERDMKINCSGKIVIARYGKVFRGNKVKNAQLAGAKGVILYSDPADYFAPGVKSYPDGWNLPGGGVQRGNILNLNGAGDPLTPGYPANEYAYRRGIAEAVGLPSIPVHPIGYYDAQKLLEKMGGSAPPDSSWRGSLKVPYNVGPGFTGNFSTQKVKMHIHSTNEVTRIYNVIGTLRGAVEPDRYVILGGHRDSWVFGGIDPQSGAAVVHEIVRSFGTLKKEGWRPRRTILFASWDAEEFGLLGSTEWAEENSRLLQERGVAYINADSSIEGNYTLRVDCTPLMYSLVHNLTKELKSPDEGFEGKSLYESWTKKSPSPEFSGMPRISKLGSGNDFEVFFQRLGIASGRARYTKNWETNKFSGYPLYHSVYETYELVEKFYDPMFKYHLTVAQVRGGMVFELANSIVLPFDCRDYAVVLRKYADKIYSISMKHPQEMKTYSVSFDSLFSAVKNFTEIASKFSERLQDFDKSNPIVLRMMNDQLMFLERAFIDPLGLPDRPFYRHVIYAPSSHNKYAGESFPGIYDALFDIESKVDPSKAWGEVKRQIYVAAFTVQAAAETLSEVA

PSMA [2] = biological target: T1, PSMA; test: In vitro saturation binding assay with PC3(+) tumor membrane preparations; conditions: saturation assays, mean (SE), n = 3–5
Procedure: (§1) PC3(−) (wildtype human prostate cancer cell line, PSMA negative) and PC3(+) (transfected with human PSMA) were provided by Dr. Hisataka Kobayashi. Cell lines were grown at 37 °C in 5% CO2 in RPMI-1640 supplemented with 10% FBS, 2 mM L-glutamine and Pen/Strep/Amphotericin B. PC3(+) and PC3(−) cell suspensions [2 × 10^6 cells; PBS:Matrigel (70:30)] from in vitro cell culture were subcutaneously implanted (right shoulder) into athymic mice (Athymic NCr- nu/nu, Charles River Laboratory, 4 weeks old) for use as positive and negative controls, respectively, for in vitro or in vivo studies. When tumors reached the appropriate size (>100 mg) the xenograft mice were used for in vivo biodistributions and imaging studies or the tumors were excised and further processed to obtain membrane preparations for in vitro assays as described previously.
In vitro saturation studies were performed to determine binding affinities (Kd) and PSMA expression levels (Bmax) using tumor membrane preparations from PC3(−) and PC3(+) PSMA xenografts (human prostate cancer cell line transfected with human PSMA; PC3(+)). […] Filter papers were collected, and the radioactive content was quantified by gamma counting (PerkinElmer 2480 Wizard3). […] Aliquots of each membrane preparation were taken for the determination of the protein concentration (Bradford method).

[3] = Fraction of intact tracer (parent) in blood and kidney by TLC; assay type: in vivo, mice; conditions: for %Parent compound in blood (TLC analysis): 60 min; for tissue uptake at 0.25 h: 15 min post-injection; for tissue uptake at 0.5 h: 30 min post-injection; for tissue uptake at 2 h: 120 min post-injection
Source text: In some cases, additional blood samples and/or tissue samples after gamma counting were taken for determining the fraction of intact radiolabeled tracer (parent) using thin-layer chromatography (TLC). For these TLC determinations: tissues were placed in equal volumes of acetonitrile and homogenized, or serum was obtained from the blood samples and mixed with an equal volume of acetonitrile. Following centrifugation of the samples, supernatants were collected and the radioactive content of the supernatants and pellets were determined. The supernatants were then applied to thin-layer chromatography (TLC) plates. The TLC plates were developed [solvent system: ethyl acetate (80%), methanol (10%) and acetic acid (10%)], and exposed on a phosphorimaging plate which was scanned the next day.

PC3(+) xenografts [4] = test: Blocking biodistribution study in PC3(+) xenografts, coinjection of non-radioactive DCFPyL; assay type: in vivo, mice; conditions: 60 min, coinjection of DCFPyL 1000×
Procedure: (§2) Tumor-bearing mice (tumor weights: 0.1–0.8 g) were injected while awake via the tail vein with each of the tracers [0.74–3.7 MBq (20 to 100 µCi), 10 to 80 pmol] and euthanized (via CO2 inhalation) at selected times. […] Blood samples and tissues were excised from each animal, weighed, and radioactivity content was determined (Perkin Elmer 2480 Wizard3). Radioactivity content in the blood and each tissue was expressed as % injected dose per gram of tissue [%ID/g; (Formula (1))] and then normalized for body weight to a 20 g mouse (Formula (2)) from which Tissue:Muscle ratios [T:M; (Formula (3))] were determined as follows:(1) %ID/g =[counts per minute cpmtissue / tissue weight g]×100/cpmtotal injected dose
(§3) %ID/g (normalized to a 20 g mouse) = (%ID/g) × (body weight/20 g)(2)
(§4) (3) T:M=%ID/gtissue/%ID/gmuscle

PC3(+) xenografts [5] = test: In vivo biodistribution in PC3(+) xenograft mice; set-up: key to salivary gland T:M / Femur T:M / Blood T:M / Kidney T:M / Liver T:M: T:M = (%ID/g in tissue) / (%ID/g in muscle); conditions: for Radioactivity in the blood: 60 min (Figure 5A)
Procedure: as §1, §2, §3, §4

PC3(−) xenografts = test: In vivo biodistribution in PC3(−) xenograft mice (negative control); conditions: 60 min; mean ± SE, n = 8–10
Procedure: as §1, §2, §3, §4

[6] = test system: PC3(+) tumor xenograft mice; test: Small animal PET imaging with ROI analysis, PC3(+) tumor xenograft mice; assay type: in vivo; conditions: 60 min post-injection
Procedure: Tumor-bearing mice were anesthetized with isoflurane/O2 (1.5–3% v/v) and imaged at various times after intravenous injection of each tracer [2.6 to 3.7 MBq (70 to 100 µCi)]. Whole body static PET images were obtained at 2 bed positions (FOV = 2.0 cm, total imaging time: 10 min) using a BioPET scanner (Bioscan Inc., Washington, DC, USA). The images were reconstructed by a 3-dimensional ordered-subsets expectation maximum (3D-OSEM).

[7] = mouse, blood, intravenous, mean ± SE, read-out: Blood uptake, parent (corrected for metabolites)
[8] = mouse, kidney, intravenous, mean ± SE, read-out: Kidney uptake, parent (corrected for metabolites)
[9] = 15 min post-injection, mean ± SE
[10] = 30 min post-injection, mean ± SE
[11] = 60 min post-injection, mean ± SE
[12] = 120 min post-injection, mean ± SE

Compound: O=C(O)CC[C@H](NC(=O)N[C@@H](CCCCNC(=O)CO/N=C\c1ccc(F)nc1)C(=O)O)C(=O)O [1b, (((S)-5-(2-(aminooxy)acetamido)-1-carboxypentyl)carbamoyl)-L-glutamic acid 6-fluoronicotinaldehyde oxime]
- Ki (PSMA [1]): 0.312 nM

Compound: O=C(O)CC[C@H](NC(=O)N[C@@H](CCCCNC(=O)CCCCCO/N=C\c1ccc([18F])nc1)C(=O)O)C(=O)O [[^18F]2b]
- Kd (PSMA [2]): 0.489 nM
- %Parent compound in blood (TLC analysis) ([3]; mean ± SD, n = 2–5): 78.8 ± 2.6%
- decrease of PC3(+) tumor T:M in blocked group compared to non-blocked group (PC3(+) xenografts [4]): 85%
- decrease of PC3(+) tumor T:M compared to [18F]DCFPyL (PC3(+) xenografts [5]; 60 min): 27%
- decrease of blood radioactivity compared to [18F]DCFPyL (PC3(+) xenografts [5]; 60 min): 27%
- Radioactivity in the blood (PC3(+) xenografts [5]): 0.377 %ID/g
- Blood T:M (PC3(+) xenografts [5]; 60 min, mean ± SE, n = 8–10): 2.04 ± 0.11
- Femur T:M (PC3(+) xenografts [5]; 60 min, mean ± SE, n = 8–10): 2.00 ± 0.18
- Kidney T:M (PC3(+) xenografts [5]; 60 min, mean ± SE, n = 8–10): 814.2 ± 71.9
- Liver T:M (PC3(+) xenografts [5]; 60 min, mean ± SE, n = 8–10): 44.6 ± 3.8
- PC3(+) Tumor T:M (PC3(+) xenografts [5]; 60 min, mean ± SE, n = 8–10): 90 and 89.9 ± 7.6
- PC3(−) Tumor T:M (PC3(−) xenografts): 1.65 ± 0.20

Compound: O=C(O)CC[C@H](NC(=O)N[C@@H](CCCCNC(=O)CCCCCO/N=C\c1ccc(F)cc1)C(=O)O)C(=O)O [2a, (((. S)-5-(6-(Aminooxy)hexanamido)-1-carboxypentyl)carbamoyl)-L-glutamic acid 4-fluorobenzaldehyde oxime]
- Ki (PSMA [1]): 0.621 nM

Compound: O=C(O)CC[C@H](NC(=O)N[C@@H](CCCCNC(=O)CCCCCO/N=C\c1ccc(F)nc1)C(=O)O)C(=O)O [2b, (((. S)-5-(6-(Aminooxy)hexanamido)-1-carboxypentyl)carbamoyl)-L-glutamic acid 6-fluoronicotinaldehyde oxime]
- Ki (PSMA [1]): 0.901 nM

Compound: O=C(O)CC[C@H](NC(=O)N[C@@H](CCCCNC(=O)CO/N=C\c1ccc(F)cc1)C(=O)O)C(=O)O [1a, (((S)-5-(2-(aminooxy)acetamido)-1-carboxypentyl)carbamoyl)-L-glutamic acid 4-fluorobenzaldehyde oxime, reference compound]
- Ki (PSMA [1]): 0.101 nM

Compound: O=C(O)CC[C@H](NC(=O)N[C@@H](CCCCNC(=O)CCCCCO/N=C\c1ccc([18F])cc1)C(=O)O)C(=O)O [[^18F]2a]
- Kd (PSMA [2]): 0.362 nM
- %Parent compound in blood (TLC analysis) ([3]; mean ± SD, n = 2–5): 84.8 ± 0.6%
- increase of parent kidney uptake compared to [18F]DCFPyL ([3]; 120 min): 4 fold
- tissue uptake at 0.25 h [3, 7]: 4.1 ± 0.49 %ID/g
- tissue uptake at 0.5 h [3, 7]: 2.08 ± 0.15 %ID/g
- tissue uptake at 2 h [3, 7]: 0.31 ± 0.03 %ID/g
- tissue uptake at 0.25 h [3, 8]: 11.8 ± 0.64 %ID/g
- tissue uptake at 0.5 h [3, 8]: 22.7 ± 1.73 %ID/g
- tissue uptake at 1 h ([3]; mouse, kidney, intravenous, 60 min post-injection, mean ± SE, read-out: Kidney uptake, parent (corrected for metabolites)): 15.6 ± 1.19 %ID/g
- tissue uptake at 2 h [3, 8]: 13 ± 0.98 %ID/g
- % of parent in blood ([3]; nude, mouse, in vivo): 85-83
- % of parent in kidney ([3]; nude, mouse, in vivo): 29-15
- %Parent compound in blood (TLC analysis) ([3]; nude, mouse, in vivo): 85%
- decrease of PC3(+) tumor T:M in blocked group compared to non-blocked group (PC3(+) xenografts [4]): 48%
- PC3(+) tumor uptake from ROI analysis of PET images [6]: 14 %ID/g
- increase of liver uptake compared to [18F]DCFPyL (PET ROI) [6]: ~ 10 fold
- kidney uptake from ROI analysis of PET images [6]: 98 %ID/g
- liver uptake from ROI analysis of PET images [6]: 29 %ID/g
- reduction of kidney uptake compared to [18F]DCFPyL (PET ROI) [6]: ~ 50%
- Blood uptake, total radioactivity (PC3(+) xenografts [5]; [9]): 4.83 ± 0.57 %ID/g
- Kidney uptake, total radioactivity (PC3(+) xenografts [5]; [9]): 62.2 ± 3.4 %ID/g
- Blood uptake, total radioactivity (PC3(+) xenografts [5]; [10]): 2.47 ± 0.18 %ID/g
- Kidney uptake, total radioactivity (PC3(+) xenografts [5]; [10]): 78.4 ± 9.1 %ID/g
- decrease of PC3(+) tumor T:M compared to [18F]DCFPyL (PC3(+) xenografts [5]; 60 min): 40%
- increase of blood radioactivity vs. [18F]DCFPyL (PC3(+) xenografts [5]; 60 min): 1.6 fold
- increase of liver T:M compared to [18F]DCFPyL (PC3(+) xenografts [5]; 60 min): 6.8 fold
- decrease of kidney T:M compared to [18F]DCFPyL (PC3(+) xenografts [5]; 60 min, p < 0.0001): 55%
- Blood T:M (PC3(+) xenografts [5]; 60 min, mean ± SE, n = 8–10): 2.85 ± 0.15
- Femur T:M (PC3(+) xenografts [5]; 60 min, mean ± SE, n = 8–10): 0.73 ± 0.04
- Kidney T:M (PC3(+) xenografts [5]; 60 min, mean ± SE, n = 8–10): 314.8 ± 8.3
- Liver T:M (PC3(+) xenografts [5]; 60 min, mean ± SE, n = 8–10): 66.9 ± 4.2
- PC3(+) Tumor T:M (PC3(+) xenografts [5]; 60 min, mean ± SE, n = 8–10): 74 and 73.9 ± 5.8
- Blood uptake, total radioactivity (PC3(+) xenografts [5]; [11]): 0.77 ± 0.10 %ID/g
- Kidney uptake, total radioactivity (PC3(+) xenografts [5]; [11]): 75.8 ± 6.3 %ID/g
- Blood uptake, total radioactivity (PC3(+) xenografts [5]; [12]): 0.37 ± 0.03 %ID/g
- Kidney uptake, total radioactivity (PC3(+) xenografts [5]; [12]): 87.8 ± 5.1 %ID/g
- Femur uptake (PC3(+) xenografts [5]; all times 15 to 120 min): < 1 %ID/g
- Femur T:M (PC3(+) xenografts [5]; all times except 120 min): < 1.8
- decrease of tumor T:M compared to [18F]DCFPyL tumor T:M (PC3(+) xenografts [5]; at 30 and 60 min): ~ 2 fold
- increase in tumor T:M from 15 to 120 min (PC3(+) xenografts [5]; mouse, in vivo): ~ 14 fold
- increase of tumor retention (%ID/g) from 15 to 120 min (PC3(+) xenografts [5]; mouse, in vivo): 1.4 fold
- PC3(−) Tumor T:M (PC3(−) xenografts): 1.42 ± 0.13

Compound: O=C(O)CC[C@H](NC(=O)N[C@@H](CCCCNC(=O)CO/N=C\c1ccc([18F])nc1)C(=O)O)C(=O)O [[^18F]1b]
- Kd (PSMA [2]): 0.458 nM
- %Parent compound in blood (TLC analysis) ([3]; mean ± SD, n = 2–5): 74.4 ± 7.6%
- decrease of blood radioactivity compared to [18F]DCFPyL (PC3(+) xenografts [5]; 60 min): 40%
- increase of PC3(+) tumor T:M compared to [18F]DCFPyL (PC3(+) xenografts [5]; 60 min): 1.6 fold
- increase of kidney T:M compared to [18F]DCFPyL (PC3(+) xenografts [5]; 60 min): 1.4 fold
- Radioactivity in the blood (PC3(+) xenografts [5]): 0.309 %ID/g
- Blood T:M (PC3(+) xenografts [5]; 60 min, mean ± SE, n = 8–10): 2.26 ± 0.22
- Femur T:M (PC3(+) xenografts [5]; 60 min, mean ± SE, n = 8–10): 1.80 ± 0.17
- Kidney T:M (PC3(+) xenografts [5]; 60 min, mean ± SE, n = 8–10): 1013 ± 34
- Liver T:M (PC3(+) xenografts [5]; 60 min, mean ± SE, n = 8–10): 24.9 ± 2.0
- PC3(+) Tumor T:M (PC3(+) xenografts [5]; 60 min, mean ± SE, n = 8–10): 204 and 203.7 ± 34.5
- PC3(−) Tumor T:M (PC3(−) xenografts): 1.43 ± 0.29
